Source: PubChem BioAssay (NCI)
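Step 1: Grow cells in 96-well plates. Step 2: Expose to compound for 48 hours at 5 concentrations. Step 3: Interpolate endpoints linearly; if unreached, use highest concentration. At the GI50, growth is halved. The concentration for full growth arrest is given as TGI.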

Columns and labels:
Test in all cases: growth of human tumour cells (NCI), 48 h
KM20L2 colon = tested on: KM20L2 colon
HOP-18 NSCLC = tested on: HOP-18 NSCLC
XF 498 CNS = tested on: XF 498 CNS
RXF-631 renal = tested on: RXF-631 renal
DMS 114 small cell lung = tested on: DMS 114 small cell lung
LXFL 529 NSCLC = tested on: LXFL 529 NSCLC
T-47D breast = tested on: T-47D breast
HS 578T breast = tested on: HS 578T breast
MDA-N = tested on: MDA-N

Row | SMILES | TGI (KM20L2 colon) | TGI (HOP-18 NSCLC) | TGI (DMS 114 small cell lung) | TGI (LXFL 529 NSCLC) | GI50 (T-47D breast) | TGI (T-47D breast) | GI50 (HS 578T breast) | TGI (HS 578T breast) | further results
1 | CCC[CH2][Sn]1([CH2]CCC)[O]C(=O)C(C(C)C)N=Cc2ccccc2[O]1 (stereo unspecified) | 2.22 µM | 1.92 µM | 0.229 µM | 0.2 µM | – | – | – | – | GI50 (KM20L2 colon): 1.04 µM; GI50 (HOP-18 NSCLC): 0.668 µM; GI50 (XF 498 CNS): > 100 µM; TGI (XF 498 CNS): > 100 µM; GI50 (RXF-631 renal): 0.166 µM; TGI (RXF-631 renal): 0.308 µM; GI50 (DMS 114 small cell lung): 0.0918 µM; GI50 (LXFL 529 NSCLC): 0.0617 µM
2 | Cc1cc(C)c(C(=O)CC(=O)c2cccnc2)c(C)c1 | – | – | – | – | 10.2 µM | > 100 µM | 9.4 µM | > 100 µM | –
3 | Cc1ccc(C(=NN=C(N)N)c2ccc(C)cc2)cc1 | – | – | – | – | 0.869 µM | 10.9 µM | 0.424 µM | 3.69 µM | –
4 | CCOC(=O)c1cc(/C(=N\O)c2cc(OC)c(OC)c(OC)c2)n2cc(C)cc(C)c12 | – | – | – | – | – | – | 2.7 µM | > 100 µM | –
5 | O=C(O)CP(=S)(S)c1ccccc1 (stereo unspecified) | – | – | > 100 µM | > 100 µM | – | – | – | – | TGI (XF 498 CNS): > 100 µM
6 | Cc1cccc(NC(=O)C(=O)Cc2nc3ccccc3[nH]c2=O)c1C | > 100 µM | > 100 µM | > 100 µM | > 100 µM | – | – | – | – | TGI (XF 498 CNS): > 100 µM
7 | O=C(Nc1ccc(Cl)cc1)c1cc(-c2ccc(F)cc2)c2sc(=O)[nH]c2n1 | – | – | – | – | 0.739 µM | 5.25 µM | 2.13 µM | 13.1 µM | –
8 | COc1ccc(C(=O)c2cc(C)c(OC)c(C)c2)c(OC)c1N(C(=O)C(Cl)Cl)C(=O)C(Cl)Cl | – | – | – | – | – | – | 0.0277 µM | > 100 µM | –
9 | CC(C)c1ccc(C(=O)Nc2sc3c(c2C(N)=O)CCC(=O)C3)cc1 | – | – | – | – | 0.312 µM | 2.1 µM | 0.534 µM | 5.27 µM | –
10 | CN(C)CC/C(=N\Nc1c(Cl)cccc1Cl)c1ccccc1 | 33.1 µM | 51.1 µM | 34 µM | 29.5 µM | – | – | – | – | –
11 | CC(=O)[CH-]C(=O)c1ccccc1.CC(=O)[CH-]C(=O)c1ccccc1.O=C([O-])c1ccc([O-])cc1.O=C([O-])c1ccc([O-])cc1.[Ti+4] | > 100 µM | > 100 µM | – | > 100 µM | – | – | – | – | GI50 (KM20L2 colon): 51.1 µM; GI50 (HOP-18 NSCLC): 68.8 µM; GI50 (LXFL 529 NSCLC): 31.1 µM
12 | CC(=O)OC1CC(O)C23COC(O)C1(C)C2CC(O)C1(C)C3C(=O)C(O)C2(C)C(c3ccoc3)CC3OC321 (stereo unspecified) | – | – | – | – | 0.151 µM | > 100 µM | – | – | GI50 (MDA-N): 0.0178 µM; TGI (MDA-N): > 100 µM
13 | CCC#CC[C@H]1C/C=C2/C(=O)C=C[C@@H]2C/C=C\CCCC(=O)O1 | – | – | – | – | 1.35 µM | 10.2 µM | 1.96 µM | 14.8 µM | –
14 | CC1=C2C(=O)O[C@@H](c3ccoc3)[C@]2(C)CCC1 | > 100 µM | > 100 µM | > 100 µM | > 100 µM | – | – | – | – | TGI (XF 498 CNS): > 100 µM
15 | CC12CCCC(O)C1CCC1=CC3(CCC12)SCCS3 (stereo unspecified) | – | – | – | – | – | > 10 µM | – | – | TGI (MDA-N): > 10 µM
16 | COc1ccc2c(c1)CCC1C3(CCCC21C)OCCO3 (stereo unspecified) | 39.2 µM | 64.8 µM | – | 44.9 µM | – | – | – | – | TGI (RXF-631 renal): > 100 µM
17 | Cc1ccc2nc3c(C(=O)NCCN(C)C)cccc3nc2c1 | 18.2 µM | > 87.3 µM | 11.6 µM | > 47.1 µM | – | – | – | – | –
18 | COC(=O)Nc1nc2ccc(Oc3ccc(NC(=O)Nc4ccccc4)cc3)cc2[nH]1 | – | – | – | – | 0.131 µM | 21.7 µM | 0.0921 µM | 4.45 µM | –

Row | SMILES | TGI (KM20L2 colon) | TGI (HOP-18 NSCLC) | TGI (DMS 114 small cell lung) | TGI (LXFL 529 NSCLC) | GI50 (T-47D breast) | TGI (T-47D breast) | GI50 (HS 578T breast) | TGI (HS 578T breast) | further results
19 | CC[O-].CC[O-].O=C1c2ccccc2C(=O)c2c(O)ccc([O-])c21.O=C1c2ccccc2C(=O)c2c(O)ccc([O-])c21.[Ti+4] | > 100 µM | > 100 µM | > 100 µM | > 100 µM | – | – | – | – | GI50 (KM20L2 colon): > 100 µM; GI50 (HOP-18 NSCLC): 74.4 µM
20 | O=C(N/N=C/c1cccc(O)c1O)c1ccccc1 | – | – | – | – | 2.65 µM | > 100 µM | 10.5 µM | > 100 µM | –
21 | CCOC(=O)Sc1ncnc2nc[nH]c12 | – | – | – | – | 0.799 µM | > 100 µM | 13.8 µM | > 100 µM | –
22 | Cc1cc(C)nc(NS(=O)(=O)c2ccc(Nc3c4ccccc4nc4c(C(=O)Nc5ccc(S(=O)(=O)Nc6cc(C)on6)cc5)cccc34)cc2)n1 | 44.4 µM | 53.4 µM | 35.3 µM | 33 µM | – | – | – | – | TGI (XF 498 CNS): 53.5 µM
23 | COc1ccc(C(=O)COc2cccc(/C=C3\COc4ccc5ccccc5c4C3=O)c2)cc1 | – | – | – | – | 3.88 µM | > 100 µM | 4.93 µM | > 100 µM | –
24 | CCc1[nH]c(=O)nc(N)c1-c1ccc(N2CCCCC2)c([N+](=O)[O-])c1 | – | – | – | – | – | > 100 µM | – | > 100 µM | TGI (MDA-N): > 100 µM
25 | NC(=S)N/N=C/c1ccc(OC(=O)COc2ccc(Cl)cc2)cn1 | – | – | – | – | 8.62 µM | > 100 µM | 2.86 µM | > 100 µM | –
26 | O=C(O)CN(c1ccccc1)S(=O)(=O)c1ccccc1[N+](=O)[O-] | > 100 µM | > 100 µM | – | > 100 µM | – | – | – | – | TGI (XF 498 CNS): > 100 µM; TGI (RXF-631 renal): > 100 µM
27 | COc1cc(C2=NN(C(C)=O)C(c3ccc(OC(C)=O)cc3OC(C)=O)O2)c(OC(C)=O)c2ccccc12 (stereo unspecified) | – | – | – | – | 1.12 µM | 9.97 µM | 13.1 µM | > 100 µM | –
28 | CC(=O)OC1Oc2ccccc2-c2oc(=O)c(-c3cc4ccc(N(C)C)cc4oc3=O)cc21 (stereo unspecified) | – | – | – | – | 4.34 µM | 30.1 µM | 4.56 µM | 26.1 µM | –
29 | O=C1NC(=O)c2ccc([N+](=O)[O-])c3cccc1c23 | – | – | – | – | – | 44 µM | – | 61 µM | TGI (MDA-N): 26.8 µM
30 | COc1ccc(C(C)c2cc3c(cc2OC)OCO3)cc1 (stereo unspecified) | 0.533 µM | > 100 µM | 2.77 µM | > 42.7 µM | – | > 100 µM | – | – | –
31 | N#Cc1nc(C2OC(COC(=O)c3ccccc3)C(OC(=O)c3ccccc3)C2OC(=O)c2ccccc2)oc1N (stereo unspecified) | > 100 µM | > 100 µM | > 100 µM | – | – | – | – | – | –
32 | NC(N)=NCCCn1c2c(c3ccccc3c1=O)C(=O)c1ccccc1-2 | – | – | – | – | 22.9 µM | 66.6 µM | 2.67 µM | 25.7 µM | –
33 | Cc1ccccc1N(CCC#N)C1=NN(C(=O)CC(=O)Nc2ccccc2)C(c2ccccc2)C1 (stereo unspecified) | > 100 µM | > 100 µM | – | > 100 µM | – | – | – | – | TGI (RXF-631 renal): > 100 µM
34 | CC(C)(C)OC(=O)Cc1ccc2c(ccn2Cc2ccccc2)c1 | 77.2 µM | > 100 µM | > 100 µM | > 100 µM | – | – | – | – | TGI (RXF-631 renal): > 100 µM
35 | Cc1cc(SCC(=O)c2ccccc2)nc2ccccc12 | – | – | – | – | – | > 100 µM | – | 64.8 µM | –
